Several values for one entry are separate records, joined by “and”; a condition that tells them apart may be missing. Equal values may be shown once. Where a name gives a salt, the structure may show the parent alone.
Columns and labels:
[1] = Solution stability test (residual ratio and generation of active form in buffers of pH 2.0 to 9.0); type: physicochemical; design: Rate of generation of active form after 24 hours in buffer with pH of 7.4: tested at 25 µM; conditions: for Residual ratio / Rate of generation of active form after 24 hours in buffer with pH of 7.4: 25° C.; for Residual ratio: 25 umol/L; for Degradation behaviour in buffers (in words): pH 2.0 to 9.0; for Rate of generation of active form after 24 hours in buffer with pH of 7.4: pH 7.4 buffer
Method: The test compounds were incubated at 25° C. at a concentration of 25 umol/L in a buffer prepared to have a pH of 2.0, 3.0, 5.0, 7.4, and 9.0. The compounds were measured by HPLC after 0, 3, 6, 9, 12, and 24 hours.
The buffers used at each pH are the following. • pH 2.0: 50 mmol/L glycine buffer • pH 3.0: 50 mmol/L citrate buffer • pH 5.0: 50 mmol/L citrate buffer • pH 7.4: 50 mmol/L phosphate buffer • pH 9.0: 50 mmol/L glycine buffer
The measurement conditions for HPLC are the following.
The yield of the Example and Reference Example compounds and active forms is calculated with each of the peak area of the Example and Reference Example compounds at 0 minutes and the peak area upon dissolution of the corresponding active form at 100 umol/L as 100%. The yield is denoted in terms of %

[2] = physchem; conditions: thermodynamic from solid; for solubility at 24 h: pH 2, aqueous buffer
Method: The solubility of the water-soluble prodrugs described in the Examples and the Reference Examples was measured. […] The filtrate was measured by HPLC.

| SMILES | Degradation behaviour in buffers (in words) [1] | Residual ratio ([1]; pH3.0 buffer, 0 hr) | Residual ratio ([1]; pH3.0 buffer, 3 hr) | Residual ratio ([1]; pH3.0 buffer, 6 hr) | Residual ratio ([1]; pH3.0 buffer, 9 hr) | Residual ratio ([1]; pH3.0 buffer, 12 hr) | Residual ratio ([1]; pH3.0 buffer, 24 hr) | Residual ratio ([1]; pH5.0 buffer, 0 hr) | Residual ratio ([1]; pH5.0 buffer, 3 hr) | Residual ratio ([1]; pH5.0 buffer, 6 hr) | Residual ratio ([1]; pH5.0 buffer, 9 hr) | Residual ratio ([1]; pH5.0 buffer, 12 hr) | Residual ratio ([1]; pH7.4 buffer, 0 hr) | Residual ratio ([1]; pH7.4 buffer, 3 hr) | Residual ratio ([1]; pH7.4 buffer, 6 hr) | Residual ratio ([1]; pH7.4 buffer, 9 hr) | Residual ratio ([1]; pH7.4 buffer, 12 hr) | Rate of generation of active form after 24 hours in buffer with pH of 7.4 [1] | Stability in solution (in words) ([1]; pH of 2.0, 25° C.) | Stability in solution (in words) ([1]; pH of 3.0, 25° C.) | other results |
| --- | --- | --- | --- | --- | --- | --- | --- | --- | --- | --- | --- | --- | --- | --- | --- | --- | --- | --- | --- | --- | --- |
| CN1CC[C@H](c2c(OC(=O)N(C)CCN)cc(O)c3c(=O)cc(-c4ccccc4Cl)oc23)[C@H](O)C1 [Example 8, 2-(2-chlorophenyl)-5-hydroxy-8-[(3S,4R)-3-hydroxy-1-methylpiperidin-4-yl]-4-oxo-4H-chromen-7-yl (2-aminoethyl) methylcarbamate ditrifluoroacetate] | pH dependent and chemical degradation progressed | 100% | 100% | 100% | 100% | 100% | 100% | 100% | 98.2% | 96.1% | 94.4% | 92.4% | 76.4% | 0.1% | 0.0% | 0.1% | 0.2% | 88% | sufficient stability | sufficient stability | Residual ratio ([1]; pH2.0 buffer, 0 hr): 100%; Residual ratio ([1]; pH2.0 buffer, 3 hr): 100%; Residual ratio ([1]; pH2.0 buffer, 6 hr): 100%; Residual ratio ([1]; pH2.0 buffer, 9 hr): 100%; Residual ratio ([1]; pH2.0 buffer, 12 hr): 100%; Residual ratio ([1]; pH2.0 buffer, 24 hr): 100%; Residual ratio ([1]; pH5.0 buffer, 24 hr): 85% and 85.2%; Residual ratio ([1]; pH7.4 buffer, 24 hr): 0.5%; Residual ratio ([1]; pH9.0 buffer, 0 hr): 9.7%; Residual ratio ([1]; pH9.0 buffer, 3 hr): 0.2%; Residual ratio ([1]; pH9.0 buffer, 6 hr): 0.2%; Residual ratio ([1]; pH9.0 buffer, 9 hr): 0.1%; Residual ratio ([1]; pH9.0 buffer, 12 hr): 0.1%; Residual ratio ([1]; pH9.0 buffer, 24 hr): 0.0%; solubility ([2]; pH 5, aqueous buffer): > 10000 µg/mL |
| C[C@H]1COc2c1c(OC(=O)NCCNCC(=O)O)c(OC(=O)NCCNCC(=O)O)c1c3c(ccc21)C(C)(C)CCC3 [Example 12, 2,2′-{[(1R)-1,6,6-trimethyl-1,2,6,7,8,9-hexahydrophenanthro [1,2-b]furan-10,11-diyl]bis(oxycarbonylazanediylethane-2,1-diylazanediyl)}diacetic acid dihydrochloride] | pH dependent and chemical degradation progressed | 100% | 99.2% | 98.9% | 98.6% | 98.4% | 98.3% | 100% | 99.1% | 98.1% | 97.1% | 96.4% | 100% | 9.8% | 1.7% | 1.4% | 0% | 11% | stable | stable | Residual ratio ([1]; pH2.0 buffer, 0 hr): 100%; Residual ratio ([1]; pH2.0 buffer, 3 hr): 99.4%; Residual ratio ([1]; pH2.0 buffer, 6 hr): 98.9%; Residual ratio ([1]; pH2.0 buffer, 9 hr): 98.7%; Residual ratio ([1]; pH2.0 buffer, 12 hr): 98.5%; Residual ratio ([1]; pH2.0 buffer, 24 hr): 98.5%; Residual ratio ([1]; pH5.0 buffer, 24 hr, dihydrochloride): 93% and 93.3%; Residual ratio ([1]; pH7.4 buffer, 24 hr): 0%; solubility at 24 h [2]: > 10000 µg/mL |
| C[C@H]1COc2c1c(OC(=O)NCCCNCC(=O)O)c(OC(=O)NCCCNCC(=O)O)c1c3c(ccc21)C(C)(C)CCC3 [Example 13, 2,2′-{[(1R)-1,6,6-trimethyl-1,2,6,7,8,9-hexahydrophenanthro[1,2-b]furan-10,11-diyl]bis(oxycarbonylazanediylpropane-3,1-diylazanediyl)}diacetic acid dihydrochloride] | pH dependent and chemical degradation progressed | 100% | 100% | 100% | 99.8% | 99.6% | 100% | 100% | 99.4% | 99.2% | 99.0% | 98.6% | 100% | 61.8% | 42.6% | 28.5% | 19.1% | 5% | stable | stable | Residual ratio ([1]; pH5.0 buffer, 24 hr): 98.4%; Residual ratio ([1]; pH7.4 buffer, 24 hr, dihydrochloride): 6% and 6.1%; Residual ratio ([1]; pH9.0 buffer, 0 hr): 100%; Residual ratio ([1]; pH9.0 buffer, 3 hr): 99.7%; Residual ratio ([1]; pH9.0 buffer, 6 hr): 99.4%; Residual ratio ([1]; pH9.0 buffer, 9 hr): 99.3%; Residual ratio ([1]; pH9.0 buffer, 12 hr): 99.1%; Residual ratio ([1]; pH9.0 buffer, 24 hr): 100%; Stability in solution (in words) ([1]; pH of 5.0, 25° C.): stable; solubility at 24 h [2]: > 10000 µg/mL |
| CC(=O)c1cc2c(O)c3c(O)cccc3c(OC(=O)NCCCN)c2o1 [Reference Example 9, 2-Acetyl-4,5-dihydroxynaphtho[2,3-b]furan-9-yl(3-aminopropyl)carbamate hydrochloride] | pH dependent and chemical degradation progressed | 101% | 100% | 100% | 99.8% | 99.5% | 98.4% | 102% | 104% | 99.7% | 93.8% | 87.4% | 103% | 83.0% | 67.1% | 52.7% | 41.1% | 71% | sufficient stability | sufficient stability | Residual ratio ([1]; pH2.0 buffer, 0 hr): 100%; Residual ratio ([1]; pH2.0 buffer, 3 hr): 96.9%; Residual ratio ([1]; pH2.0 buffer, 6 hr): 92.9%; Residual ratio ([1]; pH2.0 buffer, 9 hr): 85.7%; Residual ratio ([1]; pH2.0 buffer, 12 hr): 85.2%; Residual ratio ([1]; pH5.0 buffer, 24 hr, hydrochloride): 67% and 67.1%; Residual ratio ([1]; pH7.4 buffer, 24 hr, hydrochloride): 26% and 25.5%; Residual ratio ([1]; pH9.0 buffer, 0 hr): 75.3%; Residual ratio ([1]; pH9.0 buffer, 3 hr): 13.7%; Residual ratio ([1]; pH9.0 buffer, 6 hr, hydrochloride): 0%; Residual ratio ([1]; pH9.0 buffer, 9 hr): 0.0%; Residual ratio ([1]; pH9.0 buffer, 12 hr): 0.0%; Residual ratio ([1]; pH9.0 buffer, 24 hr): 0.0%; solubility ([2]; pH 3, aqueous buffer): > 10000 µg/mL |

From US20200207782A1, “CHEMICALLY ACTIVATED WATER-SOLUBLE PRODRUG” (SUMITOMO DAINIPPON PHARMA CO., LTD, priority 2017, published 2020)
